Counter-ions that a name gives are not always drawn. Like-named read-outs stand apart in the source and are kept apart here.
Key:
thrombocyte aggregation = experiment: Inhibition of collagen-induced platelet aggregation in platelet-rich plasma (Born and Cross); assay type: cell-based; settings: Homo sapiens, 10 min, read-out: Inhibition of platelet aggregation EC50
Experimental: The thrombocyte aggregatrion is measured using the Born and Cross method (J. Physiol. 170: 397 (1964)) in platelet-rich plasma taken from health volunteers. To inhibit coagulation the blood is mixed with 3.14% sodium citrate in a ratio by volume of 1:10.
Collagen-induced agaregation
The pattern of the decrease in optical density of the platelet suspension is photometrically measured and recorded after the addition of the aggregation-triggering substance. The rate of aggregation is concluded from the angle of inclination of the density curve. The point on the curve where there is maximum light transmittance is used to calculate the optical density.
The amount of collagen used is as small as possible but sufficient to produce an irreversible reaction curve. Standard commercial collagen produced by Hormonchemie of Munich is used.
Before the addition of the collagen the plasma is incubated for 10 minutes with the substance at 37° C.
From the measurements obtained an EC50 is determined graphically, indicating a 50% change in the optical density in terms of the inhibition of aggregation.

human thrombocytes = experiment: Inhibition of binding of 3H-BIBU 52 to human thrombocytes (fibrinogen-binding test); settings: 3H-BIBU 52 final concentration 5 nM, plasma, 20 minutes, ambient temperature; 50% inhibition of binding
Experimental: Inhibition of Binding of ^3 H-BIBU 52 to Human Thrombocytes
A suspension of human thrombocytes in plasma is incubated with ^3 H-BIBU 52 [=(3S,5S)-5-[(4'-amidino-4-biphenylyl)oxymethyl]-3-[(carboxyl)methyl]-2-pyrrolidinone[^3 -^3 H-4-biphenylyl]] […] The free and bound ligand is separated by centrifuging and quantitatively determined by scintillation counting. From the measurements obtained, the inhibition of ^3 H-BIBU 52 binding by the test substance is determined.
In order to do this, donor blood is taken from an anticubital vein and anticoagulated by trisodium citrate (final concentration 13 mM). The blood is centrifuged for 10 minutes at 170×g and the supernatant platelet-rich plasma (PRP) is removed. The remaining blood is vigorously centrifuged once more in order to obtain plasma. The PRP is diluted 1:10 with autologous plasma. 750 μl are incubated with 50 μl of physiological saline solution, 100 μl of test substance solution, 50 μl of ^4 C-sucrose (3,700 Bq) and 50 μl of ^3 H-BIBU 52 (final concentration: 5 nM) at ambient temperature for 20 minutes. In order to measure non-specific binding, instead of the test substance, 5 μl of BIBU 52 are put in (final concentration: 30 μM). The samples are centrifuged for 20 seconds at 10,000×g and the supernatant is drawn off. 100 μl therof are measured in order to determine the free ligand. The pellet is dissolved in 500 μl of 0.2N NaOH, 450 μl are mixed with 2 ml of scintillator and 25 μl of 5N HCl and measured. The residual plasma remaining in the pellet is determined from the ^14 C content, the bound ligand from the ^3 H measurement. After subtracting the non-specific binding, the pellet activity is plotted against the concentration of the test substance and the concentration for a 50% inhibition of binding is determined.

[1] = Tolerability after intravenous administration to mice; assay type: in vivo
thrombocytes = experiment: Collagen-induced aggregation of thrombocytes ex vivo after oral administration; assay type: in vivo; settings: rhesus monkey, oral administration of 1 mg/kg
Experimental: Moreover, the compound of Example 6(14), for example, inhibits the collagen-induced aggregation of thrombocytes in the rhesus monkey ex vivo after the oral administration of 1 mg/kg for up to four hours.

[2] = collagen-induced, platelet-rich plasma, 10 minutes incubation at 37° C., 50% change in optical density

SMILES | EC50 (thrombocyte aggregation; [2]) | IC50 (human thrombocytes) | Deaths after intravenous administration ([1]; mouse, in vivo, iv, 30 mg/kg) | Duration of inhibition of collagen-induced aggregation of thrombocytes ex vivo (thrombocytes) | EC50 (thrombocyte aggregation; Platelet) | Deaths after intravenous administration ([1]; mice, 30 mg/kg intravenous, three animals)
O=C(O)CCc1ccc(N2CCN(CCC3CCNCC3)C2=O)cc1 [1(6), 1-[4-(2-carboxyethyl)phenyl]-3-[2-(4-piperidinyl)ethyl]-imidazolidin-2-one-hydrochloride×water] | 100 nM | 18 nM | none of the three animals tested died | – | – | –
N=C(N)c1ccc(-n2nc(-c3ccccc3)n(-c3ccc(CCC(=O)O)cc3)c2=O)cc1 [1(2), 2-(4-amidinophenyl)-4-[4-(2-carboxyethyl)phenyl]-5-phenyl-4H-1,2,4-triazol-3-one×2 water] | 70 nM | 1.2 nM | – | – | – | –
O=C1N(c2ccc(C34CCN(CC3)CC4)cc2)CCN1[C@H]1CC[C@H](C(=O)O)CC1 [1(50), 1-(trans-4-carboxycyclohexyl)-3-[4-(4-quinuclidinyl)-phenyl]-imidazolidin-2-one-hydrochloride×1.2 H2 O] | – | 65 nM | – | – | 170 nM | –
Cl.O=C(O)CCc1ccc(N2CCN(CCC34CCN(CC3)CC4)C2=O)cc1 [Example 26, 1-[4-(2-Carboxyethyl)phenyl]-3-[2-(4-quinuclidinyl)ethyl]-imidazolidin-2-one-hydrochloride] | – | 26 nM | – | – | 84 nM | none of the three animals tested died
Cc1nn(-c2ccc(C(=N)N)cc2)c(=O)n1-c1ccc(CC(C)C(=O)O)cc1 (centres unmarked) [1(1), 2-(4-amidinophenyl)-4-[4-(2-carboxy-1-propyl)phenyl]-5-methyl-4H-1,2,4-triazol-3-one×0.5 water] | 30 nM | 0.8 nM | none of the three animals tested died | – | – | –
CCCC(Cc1ccc(-n2c(C)nn(CCC3CCNCC3)c2=O)cc1)C(=O)O (centres unmarked) [1(8), 4-[4-(2-carboxy-1-pentyl)phenyl]-5-methyl-2-(2-(4-piperidinyl)ethyl)-4H-1,2,4-triazol-3-one-hydrochloride] | 1200 nM | 760 nM | – | – | – | –
CCCCS(=O)(=O)NC(Cc1ccc(N2CCN(c3ccc(C(=N)N)cc3)C2=O)cc1)C(=O)O (centres unmarked) [1(21), 1-(4-amidinophenyl)-3-[4-[2-(n-butylsulfonylamino)-2-carboxy-ethyl]phenyl]-imidazolidin-2-one-hydrochloride] | 36 nM | 1 nM | – | – | – | –
Cl.O=C(O)CC[C@H]1CC[C@H](N2CCN(CCC3CCNCC3)C2=O)CC1 [1(39), 1-[trans-4-(2-carboxyethyl)cyclohexyl]-3-[2-(4-piperidinyl)ethyl]-imidazolidin-2-one-hydrochloride] | 86 nM | 25 nM | none of the three animals tested died | – | – | –
CCOC(=O)CCc1ccc(N2CCN(CCC34CCN(CC3)CC4)C2=O)cc1 [6(37), 1-[2-(4-quinuclidinyl)ethyl]-3-[4-[2-(ethoxycarbonyl)-ethyl]phenyl]-imidazolidin-2-one-hydro-chloride] | – | 7100 nM | – | – | 380 nM | –
Cl.O=C1N(c2ccc(C3CCNCC3)cc2)CCN1[C@H]1CC[C@H](C(=O)O)CC1 [Example 17, 1-(trans-4-Carboxycyclohexyl)-3-[4-(4-piperidinyl)phenyl]-imidazolidin-2-one-hydrochloride] | 43 nM | 16 nM | none of the three animals tested died | – | – | –
Cc1nn(CCC2CCNCC2)c(=O)n1-c1ccc(CCC(=O)O)cc1 [1(4), 4-[4-(2-carboxyethyl)phenyl]-5-methyl-2-[2-(4-piperidinyl)ethyl]-4H-1,2,4-triazol-3-one-toluenesulphonate×water] | 500 nM | 280 nM | none of the three animals tested died | – | – | –
NC1CCCc2cc(N3CCN(c4ccc(CCC(=O)O)cc4)C3=O)ccc21 (centres unmarked) [1(3), 1-(1-amino-1,2,3,4-tetrahydronaphthalin-6-yl)-3-[4-(2-carboxyethyl)phenyl]-imidazolidin-2-one-hydrochloride] | 270 nM | 64 nM | – | – | – | –

Further lines, with some results ahead:

EC50 (thrombocyte aggregation; [2]) | IC50 (human thrombocytes) | SMILES | Deaths after intravenous administration ([1]; mouse, in vivo, iv, 30 mg/kg) | Duration of inhibition of collagen-induced aggregation of thrombocytes ex vivo (thrombocytes) | EC50 (thrombocyte aggregation; Platelet) | Deaths after intravenous administration ([1]; mice, 30 mg/kg intravenous, three animals)
350 nM | 21000 nM | CCOC(=O)CCc1ccc(N2CCN(CCC3CCNCC3)C2=O)cc1 [6(34), 1-[4-[2-(ethoxycarbonyl)ethyl]phenyl]-3-(2-(4-piperidinyl)ethyl]-imidazolidin-2-one-hydrochloride] | – | – | – | –
940 nM | 150 nM | N#CC1(c2ccc(N3CCN(CCCCC(=O)O)C3=O)cc2)CCNCC1 [24(1), 1-(4-carboxybutyl)-3-[4-(4-cyano-4-piperidinyl)-phenyl]-imidazolidin-2-one] | – | – | – | –
840 nM | 720 nM | Cc1nn(-c2ccc(C(=N)N)cc2)c(=O)n1-c1cccc(CCC(=O)O)c1 [5(2), 2-(4-amidinophenyl)-4-[3-(2-carboxyethyl)phenyl]-5-methyl-4H-1,2,4-triazol-3-one] | – | – | – | –
3300 nM | 4100 nM | NCC1CCC(N2CCN(c3ccc(CCC(=O)O)cc3)C2=O)CC1 (centres unmarked) [4(5), 1-[4-(aminomethyl)cyclohexyl]-3-[4-(2-carboxyethyl)phenyl]-imidazolidin-2-one] | – | – | – | –
40 nM | 250 nM | Cc1nn(-c2ccc(C(=N)N)cc2)c(=O)n1-c1ccc(CCC(=O)OC2CCCCC2)cc1.Cl [Example 6(14), 2-(4-amidinophenyl)-4-[4-[2-(cyclohexyloxycarbonyl)-ethyl]phenyl]-5-methyl-4H-1,2,4-triazol-3-one-hydrochloride] | – | up to four | – | –
4300 nM | 12000 nM | CN1CCC(CCN2CCN(c3ccc(CCC(=O)O)cc3)C2=O)CC1 [Example 15] | – | – | – | –
300 nM | 250 nM | O=C(O)C=Cc1ccc(N2CCN(CCC3CCNCC3)C2=O)c(F)c1 [4(13), 1-[4-(2-carboxyethenyl)-2-fluoro-phenyl]-3-[2-(4-piperidinyl)ethyl]-imidazolidin-2-one×1.1 HCl×1 H2 O] | – | – | – | –
490 nM | 200 nM | O=C(O)CO[C@H]1CC[C@H](N2CCN(CCC3CCNCC3)C2=O)CC1 [30(4), 1-[trans-4-[(carboxymethyl)oxy]cyclohexyl]-3-[2-(4-piperidinyl)ethyl]-imidazolidin-2-one-hydrochloride×0.3 H2 O] | – | – | – | –
3200 nM | 3500 nM | N=C(N)c1ccc(N2CCN(c3ccc(CCc4nnn[nH]4)cc3)C2=O)cc1 [2(5), 1-(4-amidinophenyl)-3-[4-[2-(5-tetrazolyl)ethyl]phenyl]-imidazolidin-2-one] | – | – | – | –
30 nM | 2.9 nM | N=C(N)c1ccc(-n2ncn([C@H]3CC[C@H](CCC(=O)O)CC3)c2=O)cc1 [4(4), 2-(4-amidinophenyl)-4-[trans-4-(2-carboxyethyl)-cyclohexyl]-4H-1,2,4-triazol-3-one] | – | – | – | –
110 nM | – | O=C1N(C2CCC(C3CCNCC3)CC2)CCN1[C@H]1CC[C@H](C(=O)O)CC1 (some centres unmarked) [18(2)] | – | – | – | –
630 nM | 5700 nM | CCOC(=O)CC[C@H]1CC[C@H](N2CCN(CCC3CCNCC3)C2=O)CC1 [6(35), 1-[trans-4-[2-(ethoxycarbonyl)ethyl]cyclohexyl]-3-[2-(4-piperidinyl)ethyl]-imidazolidin-2-one-hydrochloride] | – | – | – | –
240 nM | 2500 nM | CCOC(=O)[C@H]1CC[C@H](N2CCN(c3ccc(C4CCNCC4)cc3)C2=O)CC1 [6(40), 1-[trans-4-(ethoxycarbonyl)cyclohexyl]-3-[4-(4-piperidinyl)phenyl]-imidazolidin-2-one-hydrochloride] | – | – | – | –
71 nM | – | CC1(c2ccc(N3CCN([C@H]4CC[C@H](C(=O)O)CC4)C3=O)cc2)CCNCC1 [24(2), 1-(trans-4-carboxycyclohexyl)-3-[4-(4-methyl-4-piperidinyl)phenyl]-imidazolidin-2-one] | – | – | – | –
380 nM | – | NCC1CCc2cc(N3CCN([C@H]4CC[C@H](C(=O)O)CC4)C3=O)ccc2C1 (relative stereo) [1(44), 1-(2-aminomethyl-1,2,3,4-tetrahydro-6-naphthyl)-3-(trans-4-carboxycyclohexyl)-imidazolidin-2-one-hydrochloride] | – | – | – | –
130 nM | – | Cc1nn(-c2ccc(C(=N)N)cc2)c(=O)n1[C@H]1CC[C@@H](CCC(=O)O)CC1 [Example 4, 2-(4-Amidinophenyl)-4-[cis-4-(2-carboxyethyl)cyclo-hexyl]-5-methyl-4H-1,2,4-triazol-3-one] | – | – | – | –

From patent publication US5880284A, “Cyclic urea derivatives, pharmaceutical compositions containing these compounds and processes for preparing them” (Dr. Karl Thomae GmbH, priority 1992, dated 1999)
